Measurements from patent US20240116845A1, “INDENE COMPOUNDS, PHARMACEUTICAL COMPOSITIONS THEREOF, AND THEIR THERAPEUTIC APPLICATIONS” (NucMito Pharmaceuticals Co., Ltd., priority 2021, published 2024).

What was measured:
Format in all cases: cell-based
[1] = tested on: alpha-smooth muscle actin (α-SMA); assay: Inhibition of TGF-β induced expression of alpha-smooth muscle actin in CFSC cells (western blot); conditions: compound at 10 μM, TGF-β (10 ng/mL), 24 hours
Summary of the method: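 Rat CCl4-treated hepatic stellate (CFSC) cells in serum-free DMEM were given compound at 10 μM plus TGF-β 10 ng/mL for 24 h at 37 °C. α-SMA measured by western blot with β-actin, bands quantified densitometrically. Percent inhibition is the decrease in band intensity versus TGF-β alone.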

[2] = tested on: B16F10 (malignant melanoma); assay: Antiproliferative activity, CCK-8 cell viability; conditions: Mus musculus, B16-F10, 72 h, read-out: Inhibition of Cancerous Cells, B16F10; for inhibition at 3.3 µM: compound concentration of 3.3 μM; for inhibition at 10 µM: compound concentration of 10 μM; for inhibition at 30 µM: compound concentration of 30 μM
Summary of the method: (§1)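 Cells in DMEM with 10% FBS were treated with compound at 3.3, 10 or 30 μM for 72 h at 37°C. Viability was read by CCK-8 absorbance at 450 nm and expressed relative to DMSO-treated cells. Growth inhibition was binned as ≥50%, 30–50% or <30%.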

[3] = tested on: SW480 (colon cancer); assay: Antiproliferative activity, CCK-8 cell viability; conditions: Homo sapiens, 72 h, read-out: Inhibition of Cancerous Cells, SW480; for inhibition at 3.3 µM: compound concentration of 3.3 μM; for inhibition at 10 µM: compound concentration of 10 μM; for inhibition at 30 µM: compound concentration of 30 μM
Summary of the method: as §1

[4] = tested on: HeLa (cervical cancer); assay: Antiproliferative activity, CCK-8 cell viability; conditions: Homo sapiens, 72 h, read-out: Inhibition of Cancerous Cells, HELA; for inhibition at 3.3 µM: compound concentration of 3.3 μM; for inhibition at 10 µM: compound concentration of 10 μM; for inhibition at 30 µM: compound concentration of 30 μM
[5] = tested on: HepG2 (liver cancer); assay: Antiproliferative activity, CCK-8 cell viability; conditions: Homo sapiens, 72 h, read-out: Inhibition of Cancerous Cells, HepG2; for inhibition at 3.3 µM: compound concentration of 3.3 μM; for inhibition at 10 µM: compound concentration of 10 μM; for inhibition at 30 µM: compound concentration of 30 μM
Summary of the method: as §1

[6] = tested on: MDA-MB-231 (breast cancer); assay: Antiproliferative activity, CCK-8 cell viability; conditions: Homo sapiens, 72 h, read-out: Inhibition of Cancerous Cells, MDA-MB-231; for inhibition at 3.3 µM: compound concentration of 3.3 μM; for inhibition at 10 µM: compound concentration of 10 μM; for inhibition at 30 µM: compound concentration of 30 μM
Summary of the method: as §1

[7] = tested on: A431 (epidermoid carcinoma); assay: Antiproliferative activity, CCK-8 cell viability; conditions: Homo sapiens, A-431, 72 h, read-out: Inhibition of Cancerous Cells, A431; for inhibition at 3.3 µM: compound concentration of 3.3 μM; for inhibition at 10 µM: compound concentration of 10 μM; for inhibition at 30 µM: compound concentration of 30 μM
Summary of the method: as §1

[8] = tested on: A549 (lung adenocarcinoma); assay: Antiproliferative activity, CCK-8 cell viability; conditions: Homo sapiens, 72 h, read-out: Inhibition of Cancerous Cells, A549; for inhibition at 3.3 µM: compound concentration of 3.3 μM; for inhibition at 10 µM: compound concentration of 10 μM; for inhibition at 30 µM: compound concentration of 30 μM

Row | Structure (SMILES) | inhibition at 10 µM [1] [%] | inhibition at 3.3 µM [2] [%] | inhibition at 10 µM [2] [%] | inhibition at 30 µM [2] [%] | inhibition at 3.3 µM [3] [%] | inhibition at 10 µM [3] [%] | inhibition at 30 µM [3] [%] | inhibition at 3.3 µM [4] [%] | inhibition at 10 µM [4] [%] | inhibition at 30 µM [4] [%] | inhibition at 3.3 µM [5] [%] | inhibition at 10 µM [5] [%] | inhibition at 30 µM [5] [%] | inhibition at 3.3 µM [6] [%] | inhibition at 10 µM [6] [%] | inhibition at 30 µM [6] [%] | inhibition at 3.3 µM [7] [%] | inhibition at 10 µM [7] [%] | inhibition at 30 µM [7] [%] | inhibition at 3.3 µM [8] [%] | also measured
1 | CC1=C(CC(=O)O)c2cc(F)ccc2/C1=C\c1cccc(Oc2cccc(C(F)(F)F)c2)c1 [Compound D27, 2-[(1Z)-5-Fluoro-2-methyl-1-({3-[3-trifluoromethylphenoxy]phenyl}-methylidene)-1H-inden-3-yl]acetic acid] | ≥ 80 | < 30 | 30 to 50 | ≥ 50 | 30 to 50 | ≥ 50 | ≥ 50 | < 30 | 30 to 50 | ≥ 50 | ≥ 50 | ≥ 50 | ≥ 50 | ≥ 50 | ≥ 50 | ≥ 50 | < 30 | ≥ 50 | ≥ 50 | 30 to 50 | inhibition at 10 µM [8]: 30 to 50%; inhibition at 30 µM [8]: ≥ 50%
2 | CC1=C(CC(=O)O)c2c(F)cc(F)cc2/C1=C\c1cccc(Oc2ccccc2)c1 [Compound D21, 2-[(1Z)-4,6-Difluoro-1-(3-(phenoxy)benzylidene)-2-methyl-1H-inden-3-yl]-acetic acid] | ≥ 80 | ≥ 50 | ≥ 50 | ≥ 50 | 30 to 50 | ≥ 50 | ≥ 50 | < 30 | ≥ 50 | ≥ 50 | 30 to 50 | 30 to 50 | ≥ 50 | ≥ 50 | ≥ 50 | ≥ 50 | < 30 | 30 to 50 | ≥ 50 | 30 to 50 | inhibition at 10 µM [8]: ≥ 50%; inhibition at 30 µM [8]: ≥ 50%
3 | CC1=C(CC(=O)O)c2cc(F)ccc2/C1=C\c1ccccc1Oc1ccccc1 [Compound D19, 2-[(1Z)-5-Fluoro-1-(2-(phenoxy)benzylidene)-2-methyl-1H-inden-3-yl]-acetic acid] | < 30 | < 30 | 30 to 50 | ≥ 50 | ≥ 50 | ≥ 50 | ≥ 50 | 30 to 50 | ≥ 50 | ≥ 50 | ≥ 50 | ≥ 50 | ≥ 50 | < 30 | < 30 | ≥ 50 | ≥ 50 | ≥ 50 | ≥ 50 | 30 to 50 | inhibition at 10 µM [8]: ≥ 50%; inhibition at 30 µM [8]: ≥ 50%
4 | CC1=C(CC(=O)O)c2cc(F)ccc2/C1=C\c1ccc(Oc2ccc(F)cc2)cc1C(F)(F)F [Compound D12, 2-[(1Z)-1-{[2-Trifluoromethyl-4-(4-fluorophenoxy)phenyl]methylidene}-5-fluoro-2-methyl-1H-inden-3-yl]acetic acid] | < 30 | < 30 | ≥ 50 | ≥ 50 | 30 to 50 | ≥ 50 | ≥ 50 | < 30 | < 30 | < 30 | ≥ 50 | ≥ 50 | ≥ 50 | ≥ 50 | ≥ 50 | ≥ 50 | 30 to 50 | ≥ 50 | ≥ 50 | 30 to 50 | inhibition at 10 µM [8]: ≥ 50%; inhibition at 30 µM [8]: ≥ 50%
5 | CC1=C(CC(=O)O)c2cc(F)ccc2/C1=C\c1cccc(CCc2ccccc2)c1 [Compound A17, 2-[(1Z)-5-Fluoro-2-methyl-1-{[3-(2-phenylethyl)phenyl]methylidene}-1H-inden-3-yl]acetic acid] | < 30 | 30 to 50 | ≥ 50 | ≥ 50 | ≥ 50 | ≥ 50 | ≥ 50 | 30 to 50 | ≥ 50 | ≥ 50 | ≥ 50 | ≥ 50 | ≥ 50 | ≥ 50 | ≥ 50 | ≥ 50 | < 30 | ≥ 50 | ≥ 50 | ≥ 50 | inhibition at 10 µM [8]: ≥ 50%; inhibition at 30 µM [8]: ≥ 50%
6 | CC1=C(CC(=O)O)c2cc(F)ccc2/C1=C\c1ccc(F)c(Oc2ccccc2)c1 [Compound D23, 2-[(1Z)-5-Fluoro-1-(4-fluoro-3-(phenoxy)benzylidene)-2-methyl-1H-inden-3-yl]-acetic acid] | ≥ 80 | < 30 | ≥ 50 | ≥ 50 | < 30 | 30 to 50 | ≥ 50 | < 30 | ≥ 50 | ≥ 50 | 30 to 50 | ≥ 50 | ≥ 50 | ≥ 50 | ≥ 50 | ≥ 50 | < 30 | 30 to 50 | ≥ 50 | < 30 | inhibition at 10 µM [8]: ≥ 50%; inhibition at 30 µM [8]: ≥ 50%
7 | CC1=C(CC(=O)O)c2cc(F)ccc2/C1=C\c1cccc(COc2ccccc2)c1 [Compound A5, (Z)-2-(5-Fluoro-2-methyl-1-(3-(phenoxymethyl)benzylidene)-1H-inden-3-yl)acetic acid] | ≥ 80 | < 30 | 30 to 50 | ≥ 50 | ≥ 50 | ≥ 50 | ≥ 50 | < 30 | 30 to 50 | ≥ 50 | ≥ 50 | ≥ 50 | ≥ 50 | ≥ 50 | ≥ 50 | ≥ 50 | < 30 | 30 to 50 | ≥ 50 | 30 to 50 | inhibition at 10 µM [8]: 30 to 50%; inhibition at 30 µM [8]: ≥ 50%
8 | O=C(O)CC1=C/C(=C/c2ccc(Oc3ccc(F)cc3)cc2)c2ccc(F)cc21 [Compound D33, 2-[(1Z)-5-Fluoro-1-{[4-(4-fluorophenoxy)phenyl]methylidene}-1H-inden-3-yl]acetic acid] | < 30 | 30 to 50 | ≥ 50 | ≥ 50 | 30 to 50 | ≥ 50 | ≥ 50 | 30 to 50 | < 30 | ≥ 50 | ≥ 50 | ≥ 50 | ≥ 50 | ≥ 50 | ≥ 50 | ≥ 50 | < 30 | 30 to 50 | ≥ 50 | 30 to 50 | inhibition at 10 µM [8]: 30 to 50%; inhibition at 30 µM [8]: ≥ 50%
